From patent publication US20090170899A1, “Stimulators of 5-HT4 receptors and uses thereof” (priority 2004, published 2009)

Test system: hippocampal CA3 pyramidal neurons
Assay: Acute i.v. prucalopride on firing of hippocampal CA3 pyramidal neurons, with microiontophoresis
Assay type: in vivo, rat
Conditions: prucalopride 1000 μg/kg i.v.
Description: FIGS. 9A to 9D. FIGS. 9A and 9C show a typical example (integrated firing rate histogram) of the response of a single hippocampal pyramidal neuron of the CA3 sub-field to an acute, intravenous administration of the selective 5-HT4 agonist prucalopride (1000 μg/kg), and its reversal by local, microiontophoretic application of the selective 5-HT1A antagonist WAY 100635 (A), or systemic injection of the selective 5-HT4 antagonist GR 125487 (1000 μg/kg, i.v.) (C). Single-cell extracellular recordings were performed in the CA3 region of chloral-hydrate anaesthetized rats by using multiple-barrel glass microelectrodes, combined with microiontophoretic pumps (with the central barrel used for recordings). Pyramidal neurons were identified according to the classical criteria (see Example 5, experimental procedures). FIGS. 9B and 9D show a summary of the effects as for FIGS. 9A and 9C, respectively. Bar histograms represent the mean (S.E.M.) percentage effect, calculated for each neuron with respect to its basal firing rate (i.e. 100% value), and the number in each column represents the number of neurons tested. *p<0.05 vs basal value, one-way ANOVA.
Microiontophoresis and extracellular recordings from hippocampal CA3 pyramidal neurons. Recording and microiontophoresis were performed with five-barreled glass micropipettes broken back to 8-12 μm under microscope control. The central barrel was filled with the same solution as in the DRN and was used for extracellular unitary recordings. Pyramidal neurons were identified by their large amplitude (0.5-1.2 mV) and long-duration (0.8-1.2 ms) simple spikes alternating with complex spike discharges (Kandel and Spencer, 1961). The side barrels contained the following solutions: quisqualate (1.5 mM in 200 mM NaCl, pH 8), WAY 100635 (15 mM in 200 mM NaCl, pH 4), and 2 M NaCl used for automatic current balancing. Rats were mounted in the stereotaxic apparatus and the micropipettes were lowered at 4.2 mm lateral and 4.2 anterior to lambda into the CA3 sub-region of the dorsal hippocampus.
Involvement of endogenous 5-HT and hippocampal 5-HT1A receptors in the effect of 5-HT4 agonists. […] This interpretation is consistent with our own previous findings, showing that both acute and chronic (3-day) administration of the same compounds augment DRN 5-HT neuronal firing activity (Lucas and Debonnel, 2002; Lucas et al., 2005). It is also in keeping with observations from a single in vivo microdialysis study, where acute systemic injection of preferential 5-HT4 agonists increased hippocampal 5-HT efflux (Ge and Barnes, 1996). To further address this possibility, two additional series of experiments were conducted. First, the role of endogenous 5-HT was assessed by using the same protocol as above, in rats co-treated with RS 67333 (or its vehicle) and the 5-HT depleter para-chlorophenylalanine (pCPA). […] The ejection currents of quisqualate needed to activate CA3 pyramidal neurons were, in this case, similar to those used in controls (0 to −2 nA, FIG. 8C). We then tested the ability of a local application of WAY 100635, directly into the CA3 subfield through the use of microiontophoresis, to modify the effect of a 5-HT4 agonist. We chose not to use the previous protocol (i.e. chronic treatments), because, as shown above, the required quisqualate currents differ between the experimental groups. Even though all currents were balanced, it was not possible to exclude the possibility that the amount of quisqualate present in the vicinity of the electrode may have an influence on the quantity of WAY 100635 actually ejected, and/or on its ability to act on pyramidal neurons. For this reason, prucalopride was used acutely in naïve rats, at a dose known to induce a significant augmentation of DRN 5-HT neuronal activity (1000 μg/kg, i.v.) (Lucas and Debonnel, 2002). […]

COCCCN1CCC(NC(=O)c2cc(Cl)c(N)c3c2OCC3)CC1 [prucalopride]
inhibition at 1 mg/kg (Rattus norvegicus, Pyramidal neuron, iv, Discussion): ~50% | discharge of inhibited CA3 pyramidal neurons (naïve rats, the 17 inhibited neurons): 46 (±5.6) % of pre-drug values | share of recorded pyramidal neurons inhibited (17 of 38 neurons): 45 % of total
